pIC50: −log10 of the molar value.
Tests used:
CDK9 = biological target: T1, CDK9 (Homo sapiens, UniProt P50750); experiment: Inhibitory effect on the kinase activity of CDK9 in vitro (Caliper); assay type: biochemical; details: 10 uM ATP, 0.2 ug/uL CTD3 peptide; read-out: CDK 9 IC50
T1 construct: purchased Millipore 14-685 M
Procedure: (§1) The detection of the inhibitory effect of the compounds of the present disclosure on the kinase activity of CDK7/CDK9 in vitro was determined by the following method:
(§2) 1) The compound was accurately weighed and dissolved in DMSO (Sigma, D2650) to a concentration of 100 mM for later use. The compound was diluted to 5-fold of a desired highest concentration, and diluted 4-fold into 6 concentration gradients, allowing the final concentration of the compound in the reaction system to be CDK7: 3000, 750, 188, 47, 12, 3 nM; CDK9: 100, 25, 6.25, 1.56, 0.39, 0.098 nM. 5 ul was taken to a 384-well plate (Corning, 4512).
(§3) 2) Kinase reaction: 10uL protein kinase (CDK7: Eurofilns,14-476 M; CDK9: Millipore,14-685 M) solution was added to the 384-well plate (Corning, 4512) containing the compound, and allowed to stand at room temperature for 10 min; a mixed solution of ATP(Sigma, A7699) and substrate polypeptide (CDK7: 77 uM ATP&0.2ug/uL CTD3 peptide (GL Biochem,SY356885); CDK9: 10 uM ATP&0.2 ug/uL CTD3 peptide (GL Biochem,SY356885)) was added, and allowed to stand at 28° C. for a short time; and then a stop solution was added to terminate the reaction at 25 uL per well.
(§4) 3) Detection: Data was collected by Caliper.
(§5) 4) Calculation: The IC50 value was calculated by Graphpad prism 5.0 software according to the concentration of the compound and the corresponding signal value.

CDK7 = biological target: T2, CDK7 (Homo sapiens, UniProt P50613); experiment: Inhibitory effect on the kinase activity of CDK7 in vitro (Caliper); assay type: biochemical; details: 77 uM ATP, 0.2 ug/uL CTD3 peptide; read-out: CDK 7 IC50
T2 construct: purchased Eurofilns (sic; Eurofins) 14-476 M
Procedure: as §1, §2, §3, §4, §5

RNA pol II Ser5 = experiment: CDK7 signaling pathway in Mv4-11 cells: phosphorylation of RNA pol II Ser5 (SDS-PAGE/blot); assay type: cell-based; details: 6 hours, FIG. 1
Procedure: (§6) The inhibition effect of the compounds of the present disclosure on CDK7/CDK9 protein downstream RNA pol II Ser ⅖ in Mv4-11 cells in vitro was determined by the following method:
(§7) 1) Cell inoculation: Mv4-11 cells with good growing state in logarithmic growth phase were inoculated into a six-well plate with 2^∗10^5 cells/well, and cultured overnight at 37° C. and under 5% CO2 condition.
(§8) 2) Administration: The compound was diluted with 2 mL of 1640 medium containing 10% FBS and 1% PS. […] of the medium containing the compound was added to the overnight cultured cells, and it was placed in a 37° C., 5% CO2 cell incubator for 6 hours.
(§9) 3) Protein extraction and quantification: Cell suspension was collected and centrifuged at 1000 g for 5 min, the cell culturing medium was discarded, and PBS was added for resuspension and centrifugation; it was repeated three times, the residual liquid was sucked dry, 80 uL cell lysate was added per well, it was placed to ice, shaked for 10 min on a shaker and centrifuged at 12000 g for 5 min, and the supernatant, ie, the total protein solution, was collected; the protein concentration was tested by BCA.
(§10) 4) 12% SDS-PAGE electrophoresis was used to detect, after that trarsmembran was carried out at 100 V voltage for 3 h, blocking solution (Beyotime: P0235) was used to block for 15 min, TBST(Sangon Biotech: C520002) was used to wash the membrane three times, and the primary antibody (target protein CST:13499, internal reference Beyotime: AF1186) was incubated at 4° C. overnight; the membrane was washed with TBST three times; the secondary antibody (Beyotime: A0208) was incubated at room temperature for 1 hour; the membrane was washed with TBST three times; ECL (Tanon: 180-501) was used for exposure and coloration.

Mv4-11 cells = experiment: Inhibition of the proliferation of Mv4-11 cells (CCK8); assay type: cell-based; details: Homo sapiens, MV4-11, 48 h
Procedure: The inhibition effect of the compounds of the present disclosure on the proliferation of Mv4-11 cells (ATCC:CRL-9591™) in vitro was determined by the following method:
1) Cell inoculation: Mv4-11 cells with good growing state in logarithmic growth phase were inoculated into a 96-well plate at 20000 cells per well and 50 uL, and cultured at 37° C. and under 5% CO2 condition for 2-4 h.
2) Administration: The compound was diluted with 1640 medium containing 10% FBS and 1% PS: 0.4 uL of the compound with an initial concentration of 1 mM was placed in a dilution plate, each added with 199.6 uL of the above culture medium, and gradiently diluted 4-fold, so that the final concentration in the added cell was 1000, 250, 62.5, 15.625, 3.91, 0.98, 0.24, 0.06 nM. 50 µL of the medium containing the compound was sequentially added, and it was placed in a 37° C., 5% CO2 cell incubator for 48 hours.
3) Detection: 10uL CCK8 (Dojindo, CK 04) solution was added to each well, incubated in 37° C. 5% CO2 cell incubator for 2 hours, and then the OD450 value was read by Synegry H1(BioTek) multimode microplate reader.
4) Calculation: The IC50 value was calculated using Graphpad prism 5.0 software according to the concentration of the compound and the corresponding signal value.

RNA pol II Ser2 = experiment: CDK9 signaling pathway in Mv4-11 cells: phosphorylation of RNA pol II Ser2 (SDS-PAGE/blot); assay type: cell-based; details: 6 hours, FIG. 1
Procedure: as §6, §7, §8, §9, §10

T1 sequence (P50750 whole entry): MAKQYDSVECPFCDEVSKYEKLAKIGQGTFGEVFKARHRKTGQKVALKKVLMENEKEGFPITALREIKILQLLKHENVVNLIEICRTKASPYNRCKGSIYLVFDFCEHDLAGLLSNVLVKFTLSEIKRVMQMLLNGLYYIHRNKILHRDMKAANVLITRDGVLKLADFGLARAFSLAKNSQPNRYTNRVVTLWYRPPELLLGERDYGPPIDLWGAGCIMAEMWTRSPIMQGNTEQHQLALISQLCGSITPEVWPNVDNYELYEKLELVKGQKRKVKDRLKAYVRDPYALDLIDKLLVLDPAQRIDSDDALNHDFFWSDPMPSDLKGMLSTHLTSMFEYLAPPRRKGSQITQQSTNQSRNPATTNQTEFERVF
T1 sequence (O60563 whole entry partner): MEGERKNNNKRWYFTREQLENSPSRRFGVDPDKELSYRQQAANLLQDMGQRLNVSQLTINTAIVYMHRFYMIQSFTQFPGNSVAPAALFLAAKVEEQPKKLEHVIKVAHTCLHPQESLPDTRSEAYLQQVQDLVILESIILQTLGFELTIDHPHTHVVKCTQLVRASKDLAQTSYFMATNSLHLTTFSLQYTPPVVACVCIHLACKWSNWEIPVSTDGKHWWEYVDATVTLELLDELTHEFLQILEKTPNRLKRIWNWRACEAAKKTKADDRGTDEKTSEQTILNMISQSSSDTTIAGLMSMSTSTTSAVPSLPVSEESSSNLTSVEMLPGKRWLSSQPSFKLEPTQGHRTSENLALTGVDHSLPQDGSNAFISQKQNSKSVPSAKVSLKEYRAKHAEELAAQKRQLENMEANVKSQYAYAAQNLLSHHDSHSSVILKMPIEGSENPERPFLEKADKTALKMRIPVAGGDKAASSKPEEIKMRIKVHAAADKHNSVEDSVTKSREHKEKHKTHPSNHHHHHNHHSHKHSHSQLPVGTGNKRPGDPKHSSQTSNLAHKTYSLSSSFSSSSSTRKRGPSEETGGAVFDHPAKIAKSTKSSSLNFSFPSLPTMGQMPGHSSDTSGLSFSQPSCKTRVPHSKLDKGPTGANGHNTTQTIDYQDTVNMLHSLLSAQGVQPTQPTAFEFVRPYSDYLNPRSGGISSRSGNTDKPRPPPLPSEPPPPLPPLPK
T2 sequence (P50613 whole entry): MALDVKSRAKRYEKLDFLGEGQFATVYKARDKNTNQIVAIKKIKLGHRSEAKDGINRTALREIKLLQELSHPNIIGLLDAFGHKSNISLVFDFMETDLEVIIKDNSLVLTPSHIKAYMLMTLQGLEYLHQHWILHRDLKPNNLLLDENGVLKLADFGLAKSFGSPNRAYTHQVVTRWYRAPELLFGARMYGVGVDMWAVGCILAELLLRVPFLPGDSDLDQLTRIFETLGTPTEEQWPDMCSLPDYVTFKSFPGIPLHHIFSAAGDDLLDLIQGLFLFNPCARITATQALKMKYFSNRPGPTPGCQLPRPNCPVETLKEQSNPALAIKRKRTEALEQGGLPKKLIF
T2 sequence (P51946 whole entry partner): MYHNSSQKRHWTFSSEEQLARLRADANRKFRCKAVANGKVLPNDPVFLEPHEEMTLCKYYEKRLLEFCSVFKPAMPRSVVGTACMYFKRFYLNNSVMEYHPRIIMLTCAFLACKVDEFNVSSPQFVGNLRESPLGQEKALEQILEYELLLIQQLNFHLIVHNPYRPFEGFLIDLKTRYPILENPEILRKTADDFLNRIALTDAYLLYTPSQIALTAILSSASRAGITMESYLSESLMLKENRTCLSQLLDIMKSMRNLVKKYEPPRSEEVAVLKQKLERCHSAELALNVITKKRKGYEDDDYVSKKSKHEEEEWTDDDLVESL
T2 sequence (P51948 whole entry partner): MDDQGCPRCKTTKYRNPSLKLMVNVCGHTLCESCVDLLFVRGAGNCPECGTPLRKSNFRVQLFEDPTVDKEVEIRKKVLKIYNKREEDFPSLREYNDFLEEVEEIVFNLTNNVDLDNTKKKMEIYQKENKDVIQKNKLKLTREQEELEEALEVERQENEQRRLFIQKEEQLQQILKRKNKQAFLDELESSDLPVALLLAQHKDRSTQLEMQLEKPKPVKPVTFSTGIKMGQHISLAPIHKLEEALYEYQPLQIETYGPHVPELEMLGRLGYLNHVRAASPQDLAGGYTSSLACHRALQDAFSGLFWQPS

Row | SMILES | pIC50 (CDK9) | pIC50 (CDK7) | inhibitory effect on the phosphorylation of the CDK7 protein downstream RNA pol II Ser5 (RNA pol II Ser5) | pIC50 (Mv4-11 cells) | inhibitory effect on the phosphorylation of CDK9 protein downstream RNA pol II Ser2 (RNA pol II Ser2)
1 | C[C@@H](C(=O)Nc1cc(-c2cnn3c2CC(C)(C)C3)c(Cl)cn1)c1cccc(C#N)n1 [Compound 13-2, (R)-N-(5-chloro-4-(5,5-dimethyl-5,6-dihydro-4H-pyrrolo[1,2-b]pyrazol-3-yl)pyridin-2-yl)-2-(6-cyanopyridin-2-yl)propionamide (assumed)] | 8.52 | 6.48 | significant inhibitory effect | 8.32 | 
2 | CNC(=O)c1cccc(CC(=O)Nc2cc(-c3cnn4c3CC(C)(C)C4)c(Cl)cn2)c1 [Compound 3, 3-(2-((5-chloro-4-(5,5-dimethyl-5,6-dihydro-4H-pyrrolo[1,2-b]pyrazol-3-yl)pyridin-2-yl)amino)-2-oxoethyl)-N-methylbenzamide] | 8.40 | 6.99 | significant inhibitory effect | 8.41 | 
3 | C[C@@H](C(=O)Nc1cc(-c2cnn3c2CC(C)(C)C3)c(Cl)cn1)c1cccnc1 [Compound 11-2, (R)-N-(5-chloro-4-(5,5-dimethyl-5,6-dihydro-4H-pyrrolo[1,2-b]pyrazol-3-yl)pyridin-2-yl)-2-(pyridin-3-yl)propionamide (assumed)] | 8.54 |  | significant inhibitory effect | 7.89 | significant inhibitory effect
4 | C[C@@H](C(=O)Nc1cc(-c2cnn3c2CC(C)(C)C3)c(Cl)cn1)c1cccc(C(N)=O)c1 [Compound 2-2, (R)-3-(1-((5-chloro-4-(5,5-dimethyl-5,6-di hydro-4H-pyrrolo[1,2-b]pyrazol-3-yl)pyridin-2-yl)amino)-1-oxopropan-2-yl)benzamide (assumed)] | 8.57 | 7.72 | significant inhibitory effect | 8.80 | significant inhibitory effect
5 | C[C@H](C(=O)Nc1cc(-c2cnn3c2CC(C)(C)C3)c(Cl)cn1)c1cccc(C#N)n1 [Compound 13-1, (S)-N-(5-chloro-4-(5,5-dimethyl-5,6-dihydro-4H-pyrrolo[1,2-b]pyrazol-3-yl)pyridin-2-yl)-2-(6-cyanopyridin-2-yl)propionamide (assumed)] | 7.35 |  |  | 6.83 | significant inhibitory effect
